Assay results as given in publication PMC5589098 (PLoS ONE, 2017).
Where two headings read alike, the source gives them in different places. Where a SMILES comes first, the peptide text is derived from it. Bridges are numbered along the chain shown (N, C = ends).

What was measured:
hNav1.2 = hNav1.2 (Homo sapiens, UniProt Q99250); test: cell-based
hCav3.1 = hCav3.1 (Homo sapiens, UniProt O43497); test: cell-based
hNav1.5 = hNav1.5 (Homo sapiens, UniProt Q14524); test: cell-based; type: cell-based
hNav1.8 = hNav1.8 (Homo sapiens, UniProt Q9Y5Y9); test: cell-based
hNav1.8, sequence (Q9Y5Y9 whole entry): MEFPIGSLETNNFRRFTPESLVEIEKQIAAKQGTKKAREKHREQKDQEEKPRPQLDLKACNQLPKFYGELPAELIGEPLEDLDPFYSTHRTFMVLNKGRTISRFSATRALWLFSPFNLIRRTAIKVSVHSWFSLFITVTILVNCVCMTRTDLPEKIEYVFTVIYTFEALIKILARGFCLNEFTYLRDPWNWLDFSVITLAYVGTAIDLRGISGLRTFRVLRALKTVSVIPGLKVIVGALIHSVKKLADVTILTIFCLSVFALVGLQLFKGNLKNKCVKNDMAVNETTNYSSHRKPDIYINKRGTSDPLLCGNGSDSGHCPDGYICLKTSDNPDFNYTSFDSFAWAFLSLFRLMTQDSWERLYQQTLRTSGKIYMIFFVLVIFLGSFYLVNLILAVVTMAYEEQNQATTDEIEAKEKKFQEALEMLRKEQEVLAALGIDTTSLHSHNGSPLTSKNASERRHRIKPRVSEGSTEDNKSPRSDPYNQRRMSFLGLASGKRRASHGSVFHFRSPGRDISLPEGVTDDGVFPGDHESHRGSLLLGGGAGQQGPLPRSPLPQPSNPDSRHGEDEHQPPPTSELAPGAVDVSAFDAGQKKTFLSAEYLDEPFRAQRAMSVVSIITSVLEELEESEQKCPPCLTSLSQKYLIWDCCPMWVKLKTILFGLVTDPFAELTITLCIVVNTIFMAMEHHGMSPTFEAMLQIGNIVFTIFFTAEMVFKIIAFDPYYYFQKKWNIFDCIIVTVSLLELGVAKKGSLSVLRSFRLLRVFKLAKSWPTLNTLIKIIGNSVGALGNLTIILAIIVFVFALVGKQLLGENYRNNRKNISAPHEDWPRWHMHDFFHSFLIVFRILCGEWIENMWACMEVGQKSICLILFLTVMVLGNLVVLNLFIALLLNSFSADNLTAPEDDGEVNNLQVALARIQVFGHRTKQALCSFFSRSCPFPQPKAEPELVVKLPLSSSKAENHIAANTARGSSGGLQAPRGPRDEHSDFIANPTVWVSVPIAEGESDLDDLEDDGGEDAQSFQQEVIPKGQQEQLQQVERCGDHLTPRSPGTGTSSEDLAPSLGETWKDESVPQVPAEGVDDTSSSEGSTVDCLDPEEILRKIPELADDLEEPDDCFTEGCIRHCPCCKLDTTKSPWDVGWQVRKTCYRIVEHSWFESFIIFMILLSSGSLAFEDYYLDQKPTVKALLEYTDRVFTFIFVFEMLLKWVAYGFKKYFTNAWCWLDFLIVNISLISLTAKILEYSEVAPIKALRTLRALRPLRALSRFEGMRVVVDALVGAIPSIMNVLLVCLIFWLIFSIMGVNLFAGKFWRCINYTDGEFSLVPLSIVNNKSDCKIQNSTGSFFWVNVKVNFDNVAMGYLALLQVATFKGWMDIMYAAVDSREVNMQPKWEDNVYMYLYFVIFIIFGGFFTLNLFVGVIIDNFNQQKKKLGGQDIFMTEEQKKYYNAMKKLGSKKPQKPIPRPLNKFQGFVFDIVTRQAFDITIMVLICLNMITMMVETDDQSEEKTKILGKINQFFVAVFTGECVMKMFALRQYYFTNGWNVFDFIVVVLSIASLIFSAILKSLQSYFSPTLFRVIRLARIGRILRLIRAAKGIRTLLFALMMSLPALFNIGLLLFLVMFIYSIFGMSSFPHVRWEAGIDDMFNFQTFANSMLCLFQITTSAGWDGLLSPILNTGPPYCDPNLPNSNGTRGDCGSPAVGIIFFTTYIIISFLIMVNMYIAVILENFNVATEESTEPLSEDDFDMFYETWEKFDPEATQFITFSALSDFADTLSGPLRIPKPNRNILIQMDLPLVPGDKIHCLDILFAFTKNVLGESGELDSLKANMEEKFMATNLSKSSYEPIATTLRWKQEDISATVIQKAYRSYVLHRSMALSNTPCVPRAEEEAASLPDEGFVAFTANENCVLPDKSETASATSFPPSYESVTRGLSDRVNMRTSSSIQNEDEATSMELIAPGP

hCav1.3 = hCav1.3 (Homo sapiens, UniProt Q01668); test: cell-based
hNav1.7 [1] = biological target: T1, hNav1.7 (Homo sapiens, UniProt Q15858); test: cell-based
[2] = biological target: human (h) Cav2.2 channels in SH-SY5Y cells (Homo sapiens, UniProt Q00975); test: cell-based
C57BL/6J mice = conditions: mouse, in vivo
hNav1.3 = hNav1.3 (Homo sapiens, UniProt Q9NY46); test: cell-based
hNav1.1 = hNav1.1 (Homo sapiens, UniProt P35498); test: cell-based
hNav1.6 = hNav1.6 (Homo sapiens, UniProt Q9UQD0); test: cell-based; type: cell-based
hNav1.6, sequence (Q9UQD0 whole entry): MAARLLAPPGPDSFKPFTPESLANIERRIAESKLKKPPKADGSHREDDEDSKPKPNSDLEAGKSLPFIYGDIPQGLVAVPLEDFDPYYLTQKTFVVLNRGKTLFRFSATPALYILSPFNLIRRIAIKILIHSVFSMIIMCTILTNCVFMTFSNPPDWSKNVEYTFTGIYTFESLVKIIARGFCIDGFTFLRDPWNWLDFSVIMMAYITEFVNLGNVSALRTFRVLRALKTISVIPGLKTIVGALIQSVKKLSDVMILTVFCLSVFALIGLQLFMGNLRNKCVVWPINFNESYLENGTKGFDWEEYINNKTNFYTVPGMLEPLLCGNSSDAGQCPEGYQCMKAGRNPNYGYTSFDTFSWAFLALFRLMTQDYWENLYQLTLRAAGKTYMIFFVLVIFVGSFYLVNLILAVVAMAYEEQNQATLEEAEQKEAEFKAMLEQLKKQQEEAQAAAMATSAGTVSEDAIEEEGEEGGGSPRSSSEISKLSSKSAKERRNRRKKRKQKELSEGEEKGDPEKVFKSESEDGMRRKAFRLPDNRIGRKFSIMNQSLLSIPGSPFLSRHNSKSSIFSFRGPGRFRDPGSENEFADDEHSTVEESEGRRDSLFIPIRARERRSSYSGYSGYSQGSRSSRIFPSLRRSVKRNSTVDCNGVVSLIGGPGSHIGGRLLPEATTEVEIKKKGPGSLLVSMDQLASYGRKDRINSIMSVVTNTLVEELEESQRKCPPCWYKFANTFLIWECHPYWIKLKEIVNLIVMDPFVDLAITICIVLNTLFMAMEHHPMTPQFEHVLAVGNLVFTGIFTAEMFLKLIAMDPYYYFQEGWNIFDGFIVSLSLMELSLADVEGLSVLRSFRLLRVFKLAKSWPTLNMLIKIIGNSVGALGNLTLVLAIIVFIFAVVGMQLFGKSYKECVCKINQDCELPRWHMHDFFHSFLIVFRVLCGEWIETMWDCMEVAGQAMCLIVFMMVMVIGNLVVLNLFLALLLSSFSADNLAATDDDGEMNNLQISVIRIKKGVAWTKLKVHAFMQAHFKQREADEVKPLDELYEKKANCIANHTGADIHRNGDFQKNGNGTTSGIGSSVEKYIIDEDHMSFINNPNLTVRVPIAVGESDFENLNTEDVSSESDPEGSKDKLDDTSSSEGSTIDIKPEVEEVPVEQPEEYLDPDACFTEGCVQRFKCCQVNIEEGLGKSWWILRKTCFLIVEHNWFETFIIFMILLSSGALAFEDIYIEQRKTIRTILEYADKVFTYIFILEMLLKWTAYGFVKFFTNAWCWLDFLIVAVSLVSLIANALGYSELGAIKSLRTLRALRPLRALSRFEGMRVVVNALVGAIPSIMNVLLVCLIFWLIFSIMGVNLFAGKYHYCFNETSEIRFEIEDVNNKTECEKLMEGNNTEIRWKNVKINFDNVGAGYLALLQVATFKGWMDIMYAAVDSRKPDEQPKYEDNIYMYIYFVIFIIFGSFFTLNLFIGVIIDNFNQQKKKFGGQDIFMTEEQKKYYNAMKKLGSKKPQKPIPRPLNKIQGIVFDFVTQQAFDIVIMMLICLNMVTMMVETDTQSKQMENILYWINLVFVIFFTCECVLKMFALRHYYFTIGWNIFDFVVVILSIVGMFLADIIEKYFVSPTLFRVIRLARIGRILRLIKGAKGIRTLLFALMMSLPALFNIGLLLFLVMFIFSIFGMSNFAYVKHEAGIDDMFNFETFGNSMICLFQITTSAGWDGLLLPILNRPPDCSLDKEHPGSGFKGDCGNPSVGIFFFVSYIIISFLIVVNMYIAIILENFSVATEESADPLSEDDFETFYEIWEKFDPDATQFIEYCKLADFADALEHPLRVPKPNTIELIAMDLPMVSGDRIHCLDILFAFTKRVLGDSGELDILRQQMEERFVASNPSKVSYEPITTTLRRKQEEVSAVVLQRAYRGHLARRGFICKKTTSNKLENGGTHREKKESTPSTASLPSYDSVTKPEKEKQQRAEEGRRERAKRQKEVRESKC

[3] = system: Nav1.7-mediated pain in C57BL/6J mice; conditions: mouse, in vivo
[4] = system: adult sheep blowflies (Lucilia cuprina); conditions: in vivo
hNav1.7 [5] = biological target: T1, hNav1.7; test: cell-based; remark: listed apart in the source
hNav1.4 = hNav1.4 (Homo sapiens, UniProt P35499); test: cell-based; type: cell-based
[6] = biological target: rat (r) Cav2.2 (Cav α1b + Cav β1b + Cav α2δ) (Rattus norvegicus, UniProt Q02294); test: cell-based

Structure (SMILES): CC(C)C[C@H](NC(=O)[C@H](CC(=O)O)NC(=O)[C@H](Cc1ccc(O)cc1)NC(=O)[C@H](CCCCN)NC(=O)[C@@H]1CSSC[C@@H]2NC(=O)[C@H](CCCCN)NC(=O)[C@H](CC(=O)O)NC(=O)[C@H](CC(N)=O)NC(=O)[C@H](CCCCN)NC(=O)[C@@H]3CCCN3C(=O)[C@H](CC(=O)O)NC(=O)[C@@H]3CSSC[C@H](NC(=O)[C@H]([C@@H](C)O)NC(=O)[C@H](Cc4ccc(O)cc4)NC(=O)[C@H](CC(N)=O)NC(=O)[C@H](CCCCN)NC(=O)[C@H](CSSC[C@H](NC(=O)[C@@H](N)CC(=O)O)C(=O)N[C@@H](CC(C)C)C(=O)NCC(=O)N[C@@H](Cc4c[nH]c5ccccc45)C(=O)N[C@@H](Cc4ccccc4)C(=O)N[C@@H](CCCCN)C(=O)N[C@@H](CO)C(=O)N3)NC2=O)C(=O)N[C@@H](CO)C(=O)N[C@@H](CCCNC(=N)N)C(=O)N[C@@H](CCCNC(=N)N)C(=O)N[C@@H](CC(=O)O)C(=O)N[C@@H](CCCNC(=N)N)C(=O)N[C@@H](Cc2c[nH]c3ccccc23)C(=O)N1)C(N)=O [Cm1a] (H-DCLGWFKSCDPKNDKCCKNYTCSRRDRWCKYDL-NH2; disulfide 2-17, 9-22, 16-29)
- IC50 (hNav1.2; read-out: IC50 at Nav1.2): 0.07 µM
- activity at Cav3.1 (hCav3.1): inactive
- IC50 (hNav1.5): > 10 µM
- IC50 (hNav1.8): > 10 µM
- activity at Cav1.3 (hCav1.3): inactive
- IC50 (hNav1.7 [1]): 5.12 ± 2.85 µM
- IC50 [2]: 0.4 ± 0.2 µM
- side effects (C57BL/6J mice): did not produce any apparent side effects
- IC50 (hNav1.3): > 10 µM
- IC50 (hNav1.1): 1.06 ± 0.32 µM
- IC50 (hNav1.6): > 10 µM

Structure (SMILES): CC(C)C[C@H](NC(=O)[C@H](Cc1ccc(O)cc1)NC(=O)[C@H](Cc1ccc(O)cc1)NC(=O)[C@H](CCCCN)NC(=O)[C@@H]1CSSC[C@@H]2NC(=O)[C@H](CCCCN)NC(=O)[C@H](CC(=O)O)NC(=O)[C@H](CC(N)=O)NC(=O)[C@H](CCCCN)NC(=O)[C@@H]3CCCN3C(=O)[C@H](CC(=O)O)NC(=O)[C@@H]3CSSC[C@H](NC(=O)[C@H]([C@@H](C)O)NC(=O)[C@H](Cc4ccc(O)cc4)NC(=O)[C@H](CC(N)=O)NC(=O)[C@H](CCCCN)NC(=O)[C@H](CSSC[C@H](NC(=O)[C@@H](N)CC(=O)O)C(=O)N[C@@H](CC(C)C)C(=O)NCC(=O)N[C@@H](Cc4c[nH]c5ccccc45)C(=O)N[C@@H](Cc4ccccc4)C(=O)N[C@@H](CCCCN)C(=O)N[C@@H](CO)C(=O)N3)NC2=O)C(=O)N[C@@H](CO)C(=O)N[C@@H](CCCNC(=N)N)C(=O)N[C@@H](CCCNC(=N)N)C(=O)N[C@@H](CC(=O)O)C(=O)N[C@@H](CCCNC(=N)N)C(=O)N[C@@H](Cc2c[nH]c3ccccc23)C(=O)N1)C(N)=O [Cm1b] (H-DCLGWFKSCDPKNDKCCKNYTCSRRDRWCKYYL-NH2; disulfide 2-17, 9-22, 16-29)
- IC50 (hNav1.2): 0.08 ± 0.02 µM
- activity at Cav3.1 (hCav3.1): inactive
- IC50 (hNav1.5): > 10 µM
- IC50 (hNav1.8): > 10 µM
- activity at Cav1.3 (hCav1.3): inactive
- IC50 (hNav1.7 [1]): 0.23 ± 0.13 µM
- IC50 [2]: 1.1 ± 0.6 µM
- side effects (C57BL/6J mice): did not produce any apparent side effects
- IC50 (hNav1.3): 5.57 ± 0.04 µM
- IC50 (hNav1.1): 0.17 ± 0.11 µM
- IC50 (hNav1.6): 3.99 ± 1.6 µM

Structure (SMILES): NC1=N[C@H](O)[C@H]2[C@H]3O[C@]4(O)O[C@@H]([C@@H](O)[C@@]2(N1)[C@@H]4O)[C@]3(O)CO [TTX, tetrodotoxin]
- reversal of OD1-evoked pain behaviours [3]: fully reversed
- ataxia index (number of foot slips/meters travelled) (C57BL/6J mice): significantly increased the ataxia index (*p < 0.05)

Structure (SMILES): CC(C)C[C@H](NC(=O)[C@H](CC(=O)O)NC(=O)[C@H](Cc1ccc(O)cc1)NC(=O)[C@H](CCCCN)NC(=O)[C@@H]1CSSC[C@@H]2NC(=O)[C@H](CCCCN)NC(=O)[C@H](CC(=O)O)NC(=O)[C@H](CC(N)=O)NC(=O)[C@H](CCCCN)NC(=O)[C@@H]3CCCN3C(=O)[C@H](CC(=O)O)NC(=O)[C@@H]3CSSC[C@H](NC(=O)[C@H](CO)NC(=O)[C@H](Cc4ccc(O)cc4)NC(=O)[C@H](CC(N)=O)NC(=O)[C@H](CCCCN)NC(=O)[C@H](CSSC[C@H](NC(=O)[C@@H](N)CC(=O)O)C(=O)N[C@@H](CC(C)C)C(=O)NCC(=O)N[C@@H](Cc4c[nH]c5ccccc45)C(=O)N[C@@H](Cc4ccccc4)C(=O)N[C@@H](CCCCN)C(=O)N[C@@H](CO)C(=O)N3)NC2=O)C(=O)N[C@@H](CO)C(=O)N[C@@H](CCCNC(=N)N)C(=O)N[C@@H](CCCNC(=N)N)C(=O)N[C@@H](CC(=O)O)C(=O)N[C@@H](CCCNC(=N)N)C(=O)N[C@@H](Cc2c[nH]c3ccccc23)C(=O)N1)C(N)=O [Cd1a] (H-DCLGWFKSCDPKNDKCCKNYSCSRRDRWCKYDL-NH2; disulfide 2-17, 9-22, 16-29)
- IC50 (hNav1.2): 0.13 ± 0.04 µM
- IC50 (hCav3.1): > 30 µM
- activity at Cav3.1 (hCav3.1): inactive
- IC50 (hNav1.5): > 30 µM
- IC50 at Nav1.5 (hNav1.5): inactive
- IC50 (hNav1.8): 6.92 ± 3.44 µM
- paralysis or lethality at 24 h [4]: No signs of paralysis or lethality
- recovery from paralysis [4]: all flies fully recovered
- IC50 (hCav1.3): > 30 µM
- activity at Cav1.3 (hCav1.3): inactive
- IC50 (hNav1.7 [1]): 3.34 ± 1.56 µM
- IC50 [2]: 2.6 µM
- enhanced recovery from inhibition by strong positive-depolarising pulse (hNav1.7 [5]): ~ 70%
- IC50 (hNav1.7 [5]; n = 10, read-out: IC50 at hNav1.7 (peak current)): 0.016 µM
- IC50 (hNav1.4): > 30 µM
- IC50 at Nav1.4 (hNav1.4): inactive
- ataxia index (number of foot slips/meters travelled) (C57BL/6J mice): no significant effect
- side effects (C57BL/6J mice): did not produce any apparent side effects
- IC50 (hNav1.3): > 30 µM
- IC50 (hNav1.1): 2.18 ± 0.69 µM
- IC50 [6]: 3 µM
- inhibition at 3 µM ([6]; TS/A, 3 μM, n = 9, read-out: inhibition of rCav2.2 currents): ~50%
- IC50 (hNav1.6): > 30 µM
- IC50 at Nav1.6 (hNav1.6): inactive
